“And” between values parts separate entries of the source, which are not always exact repeats. Equal entries are not always repeated.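 Briefly, cells in 96-well plates were exposed to five compound concentrations for 48 h, and endpoints were estimated by linear interpolation. GI50: concentration for 50% inhibition of growth. The concentration for full growth arrest is given as TGI.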
Assays:
Assay in all cases: NCI anticancer screen, dose series, 48 h
SR leukemia = test system: SR leukemia
TK-10 renal = test system: TK-10 renal
CAKI-1 renal = test system: CAKI-1 renal
SNB-75 CNS = test system: SNB-75 CNS
COLO 205 colon = test system: COLO 205 colon
NCI-H23 lung = test system: NCI-H23 lung
HS 578T breast = test system: HS 578T breast
ACHN renal = test system: ACHN renal
BT-549 breast = test system: BT-549 breast

Compound	GI50 (SR leukemia)	TGI (SR leukemia)	GI50 (TK-10 renal)	TGI (TK-10 renal)	GI50 (CAKI-1 renal)	TGI (CAKI-1 renal)	GI50 (SNB-75 CNS)	TGI (SNB-75 CNS)	GI50 (COLO 205 colon)	TGI (COLO 205 colon)	GI50 (NCI-H23 lung)	TGI (NCI-H23 lung)	GI50 (HS 578T breast)	TGI (HS 578T breast)	GI50 (ACHN renal)	TGI (ACHN renal)	GI50 (BT-549 breast)	TGI (BT-549 breast)
CCN1CCN(Cc2ccc(-c3cc4c(N[C@H](C)c5ccccc5)ncnc4[nH]3)cc2)CC1	2.34 µM and 2.05 µM	6.17 µM and 4.92 µM	0.111 µM and 0.183 µM	4.43 µM and > 10 µM	0.252 µM and 1.27 µM	3.17 µM and > 10 µM	1.48 µM and 1.88 µM	9.56 µM and 8.12 µM	1.9 µM and 1.73 µM	3.6 µM and 3.52 µM	7.39 µM and > 10 µM	33.3 µM and > 10 µM	2.1 µM and 0.763 µM	9.79 µM and 5.24 µM	0.0625 µM and 0.162 µM	12.5 µM and > 10 µM	6.3 µM and > 10 µM	22.3 µM and > 10 µM
Clc1ccc(CSC(Cn2ccnc2)c2ccc(Cl)cc2Cl)cc1 (stereo not given)	2.3 µM	5.8 µM	1.53 µM	2.89 µM	1.55 µM	4.05 µM	2.13 µM	8.04 µM	1.5 µM	2.83 µM	1.5 µM	3.6 µM	1.97 µM	5.02 µM	2.28 µM	6.5 µM	1.63 µM	3.05 µM
CCOC(=O)c1ccc2[nH]c(-c3ccc(S(=O)(=O)F)cc3)cc(=O)c2c1		> 100 µM		> 100 µM		> 100 µM		> 100 µM		> 100 µM		47 µM		> 100 µM		84.2 µM		> 100 µM
Cc1ccc([N+](=O)[O-])cc1NC(=O)Nc1cccc(F)c1	5.63 µM	64.6 µM	4.19 µM	17.7 µM	3.35 µM	> 100 µM	11.6 µM	37.1 µM	8.85 µM	> 100 µM	2.61 µM	> 100 µM	7.92 µM	45.3 µM	3.78 µM	23 µM	45.1 µM	> 100 µM
COC(=O)[C@@]12C(=O)C=CC(=O)[C@@H]1C1C(=CC2COC(C)=O)O[C@@H]2OC3(CCCCC3)O[C@H]12 (stereo not given in full)		> 100 µM		20.6 µM		25.4 µM		26.4 µM		18.4 µM		35.9 µM		31.6 µM		23.9 µM		26 µM
Nc1c(C(=O)c2cccc(CCCN3CCOCC3)c2)cnn1-c1ccc(F)cc1	> 25 µM	> 25 µM	> 25 µM	> 25 µM	> 25 µM	> 25 µM	> 25 µM	> 25 µM	> 25 µM	> 25 µM	> 25 µM	> 25 µM	> 25 µM	> 25 µM	> 25 µM	> 25 µM	> 25 µM	> 25 µM

— PubChem BioAssay (NCI)
